US20240116892A1, “HETEROCYCLIC AMIDE AND UREA COMPOUNDS AS JAK2 INHIBITORS” (Ajax Therapeutics, Inc., priority 2022, published 2024)

Molecular target: JAK2 (JH1 domain-catalytic, Y1007F, Y1008F) kinase (Homo sapiens (Human), UniProt O60674, Y1007F/Y1008F)
Assay: JAK2 JH1 Domain Binding Assay
Settings: qPCR readout
Outline: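 Competitive binding format: test compound, DNA-tagged JAK2 JH1 (Y1007F/Y1008F; HEK293-expressed NFkB fusion) and ligand-coated magnetic beads incubated 1 h at room temperature. Kinase retained on beads released with 0.5 μmol/L non-biotinylated ligand, then measured by qPCR.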

Sequence of JAK2 (JH1 domain-catalytic, Y1007F, Y1008F) kinase (O60674 849-1124 Y1007F/Y1008F): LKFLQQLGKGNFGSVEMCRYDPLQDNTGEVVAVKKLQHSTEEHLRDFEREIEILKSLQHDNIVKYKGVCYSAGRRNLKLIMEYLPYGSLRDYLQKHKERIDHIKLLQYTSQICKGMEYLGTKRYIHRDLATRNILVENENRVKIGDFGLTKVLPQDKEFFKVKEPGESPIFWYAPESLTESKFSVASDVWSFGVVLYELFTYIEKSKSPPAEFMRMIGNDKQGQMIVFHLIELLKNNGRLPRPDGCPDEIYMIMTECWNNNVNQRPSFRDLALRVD

| Kd | Compound |
| --- | --- |
| < 0.01 µM | CN(C(=O)Nc1cc(C(F)(F)F)cn(C)c1=O)[C@@H]1CCN(c2cnc3[nH]nc(OC4CCOCC4)c3c2)C[C@@H]1F [Example I-107-a, 1-((3S,4R)-3-fluoro-1-(3-((tetrahydro-2H-pyran-4-yl)oxy)-1H-pyrazolo[3,4-b]pyridin-5-yl)piperidin-4-yl)-1-methyl-3-(1-methyl-2-oxo-5-(trifluoromethyl)-1,2-dihydropyridin-3-yl)urea] |
| < 0.01 µM | COCc1cc2nc(N3CC[C@H](N(C)C(=O)Nc4cc(C(F)(F)F)cn(C)c4=O)[C@H](F)C3)cnc2[nH]1 [Example I-111-b, 1-((3R,4S)-3-fluoro-1-(6-(methoxymethyl)-5H-pyrrolo[2,3-b]pyrazin-2-yl)piperidin-4-yl)-1-methyl-3-(1-methyl-2-oxo-5-(trifluoromethyl)-1,2-dihydropyridin-3-yl)urea] |
| < 0.01 µM | CN(C(=O)Nc1cc(C(F)(F)F)cn(C)c1=O)[C@@H]1CCN(c2cnc3[nH]ccc3n2)CC1(F)F (single isomer, unassigned) [Example I-27-a] |
| < 0.01 µM | C[C@@H]1CN(c2cnc3[nH]ncc3c2)CC[C@@H]1N(C)C(=O)Nc1cc(C(F)(F)F)cn(C)c1=O [Example I-70-a, 1-methyl-1-((3R,4S)-3-methyl-1-(1H-pyrazolo[3,4-b]pyridin-5-yl)piperidin-4-yl)-3-(1-methyl-2-oxo-5-(trifluoromethyl)-1,2-dihydropyridin-3-yl)urea] |
| < 0.01 µM | CN(C(=O)Nc1cc(C(F)(F)F)cn(C)c1=O)[C@@H]1CCN(c2cnc3[nH]nc(OC4CCOCC4)c3c2)C[C@H]1F [Example I-114-b, 1-((3R,4R)-3-fluoro-1-(3-((tetrahydro-2H-pyran-4-yl)oxy)-1H-pyrazolo[3,4-b]pyridin-5-yl)piperidin-4-yl)-1-methyl-3-(1-methyl-2-oxo-5-(trifluoromethyl)-1,2-dihydropyridin-3-yl)urea] |
| < 0.01 µM | Cn1cc(C(F)(F)F)cc(NC(=O)N2CCO[C@H]3CN(c4cnc(NC(=O)C5CC5)cn4)CC[C@@H]32)c1=O [Example I-148-a, ((4aS,8aS)-6-(5-(cyclopropanecarboxamido)pyrazin-2-yl)-N-(1-methyl-2-oxo-5-(trifluoromethyl)-1,2-dihydropyridin-3-yl)octahydro-1H-pyrido[3,4-b][1,4]oxazine-1-carboxamide and (4aR,8aR)-6-(5-(cyclopropanecarboxamido)pyrazin-2-yl)-N-(1-methyl-2-oxo-5-(trifluoromethyl)-1,2-dihydropyridin-3-yl)octahydro-1H-pyrido[3,4-b][1,4]oxazine-1-carboxamide] |
| 0.05 to 1 µM | CC(=O)Nc1cnc(N2CCC(CC(=O)Nc3cc(C)cc(C(F)(F)F)c3)CC2)cn1 [Example I-2, 2-(1-(5-acetamidopyrazin-2-yl)piperidin-4-yl)-N-(3-methyl-5-(trifluoromethyl)phenyl)acetamide] |
| 0.01 to 0.05 µM | COc1n[nH]c2ncc(N3CC[C@H]4[C@H](C3)OCCN4C(=O)Nc3cc(C(F)(F)F)cn(C)c3=O)cc12 (single isomer, unassigned) [Example I-169-a] |
| ≥ 5 µM | CN(C(=O)Nc1cc(C(F)(F)F)cn(C)c1=O)C1CC2(C1)CN(c1cnc3[nH]cc(C#N)c3n1)C2 [Example I-75, 1-(2-(7-cyano-5H-pyrrolo[2,3-b]pyrazin-2-yl)-2-azaspiro[3.3]heptan-6-yl)-1-methyl-3-(1-methyl-2-oxo-5-(trifluoromethyl)-1,2-dihydropyridin-3-yl)urea] |
| 0.01 to 0.05 µM | Cn1cc(C(F)(F)F)cc(NC(=O)N2CCO[C@H]3CN(c4cnc5[nH]ccc5n4)CC[C@@H]32)c1=O [Example I-128-a, (4aS,8aS)-N-(1-methyl-2-oxo-5-(trifluoromethyl)-1,2-dihydropyridin-3-yl)-6-(5H-pyrrolo[2,3-b]pyrazin-2-yl)octahydro-1H-pyrido[3,4-b][1,4]oxazine-1-carboxamide] |
| 0.05 to 1 µM | Cn1cc(C(F)(F)F)cc(NC(=O)N2CCC23CCN(c2cnc4[nH]ccc4n2)CC3)c1=O [Example I-67, N-(1-methyl-2-oxo-5-(trifluoromethyl)-1,2-dihydropyridin-3-yl)-7-(5H-pyrrolo[2,3-b]pyrazin-2-yl)-1,7-diazaspiro[3.5]nonane-1-carboxamide] |
| < 0.01 µM | CN(C(=O)Nc1cc(C(F)(F)F)cn(C)c1=O)[C@H]1CCN(c2cnc3[nH]ncc3c2)CC1(C)C (single isomer, unassigned) [Example I-45-a] |
| < 0.01 µM | COc1c[nH]c2ncc(N3CC[C@H](N(C)C(=O)Nc4cc(C(F)(F)F)cn(C)c4=O)[C@@H](F)C3)nc12 [Example I-149, 1-((3S,4S)-3-fluoro-1-(7-methoxy-5H-pyrrolo[2,3-b]pyrazin-2-yl)piperidin-4-yl)-1-methyl-3-(1-methyl-2-oxo-5-(trifluoromethyl)-1,2-dihydropyridin-3-yl)urea] |
| < 0.01 µM | CN(C(=O)Nc1cc(C(F)(F)F)cn(C)c1=O)[C@@H]1CCN(c2cnc3[nH]ccc3n2)C[C@H]1F (single isomer, unassigned) [Example I-63-a] |
| < 0.01 µM | CC(=O)Nc1c[nH]c2ncc(N3CC[C@@H](N(C)C(=O)Nc4cc(C(F)(F)F)cn(C)c4=O)C(F)(F)C3)cc12 (mixture of isomers) [Example I-172-a, (R)—N-(5-(3,3-difluoro-4-(1-methyl-3-(1-methyl-2-oxo-5-(trifluoromethyl)-1,2-dihydropyridin-3-yl)ureido)piperidin-1-yl)-1H-pyrrolo[2,3-b]pyridin-3-yl)acetamide and (S)—N-(5-(3,3-difluoro-4-(1-methyl-3-(1-methyl-2-oxo-5-(trifluoromethyl)-1,2-dihydropyridin-3-yl)ureido)piperidin-1-yl)-1H-pyrrolo[2,3-b]pyridin-3-yl)acetamide] |
| < 0.01 µM | CN(C(=O)Nc1cc(C(F)(F)F)cn(C)c1=O)[C@H]1CCN(c2cnc3[nH]ccc3n2)C[C@H]1F [Example I-64-b, 1-((3R,4S)-3-fluoro-1-(5HI-pyrrolo[2,3-b]pyrazin-2-yl)piperidin-4-yl)-1-methyl-3-(1-methyl-2-oxo-5-(trifluoromethyl)-1,2-dihydropyridin-3-yl)urea] |
| 0.05 to 1 µM | CC(=O)Nc1cnc(N2CCC(CC(=O)Nc3cccc(C(F)(F)F)c3)CC2)cn1 [Example I-6, 2-(1-(5-acetamidopyrazin-2-yl)piperidin-4-yl)-N-(3-(trifluoromethyl)phenyl)acetamide] |
| < 0.01 µM | COc1n[nH]c2ncc(N3CCC(N(C)C(=O)Nc4cc(C5CC5)cn([C@H]5CCCOC5)c4=O)CC3)cc12 [Example I-136-a, (S)-3-(5-cyclopropyl-2-oxo-1-(tetrahydro-2H-pyran-3-yl)-1,2-dihydropyridin-3-yl)-1-(1-(3-methoxy-1H-pyrazolo[3,4-b]pyridin-5-yl)piperidin-4-yl)-1-methylurea] |
| 0.01 to 0.05 µM | CN(C(=O)Nc1cc(C(F)(F)F)cn(C)c1=O)C1(C)CCN(c2cnc3[nH]ccc3n2)CC1 [Example I-51, 1-methyl-1-(4-methyl-1-(5H-pyrrolo[2,3-b]pyrazin-2-yl)piperidin-4-yl)-3-(1-methyl-2-oxo-5-(trifluoromethyl)-1,2-dihydropyridin-3-yl)urea] |
| < 0.01 µM | COc1n[nH]c2ncc(N3CCC(N(C)C(=O)Nc4cc(C(F)(F)F)cn(C)c4=O)CC3)cc12 [Example I-69, 1-(1-(3-methoxy-1H-pyrazolo[3,4-b]pyridin-5-yl)piperidin-4-yl)-1-methyl-3-(1-methyl-2-oxo-5-(trifluoromethyl)-1,2-dihydropyridin-3-yl)urea] |
| 0.01 to 0.05 µM | Cn1cc(C(F)(F)F)cc(NC(=O)N2CC=CC23CCN(c2cnc4[nH]cc(C#N)c4n2)CC3)c1=O [Example I-98, 8-(7-cyano-5H-pyrrolo[2,3-b]pyrazin-2-yl)-N-(1-methyl-2-oxo-5-(trifluoromethyl)-1,2-dihydropyridin-3-yl)-1,8-diazaspiro[4.5]dec-3-ene-1l-carboxamide] |
| < 0.01 µM | C[C@H]1CN(c2cnc3[nH]ccc3n2)CC[C@H]1N(C)C(=O)Nc1cc(C(F)(F)F)cn(C)c1=O [Example I-58-b, 1-methyl-1-((3S,4R)-3-methyl-1-(5H-pyrrolo[2,3-b]pyrazin-2-yl)piperidin-4-yl)-3-(1-methyl-2-oxo-5-(trifluoromethyl)-1,2-dihydropyridin-3-yl)urea] |
| < 0.01 µM | COCCOc1n[nH]c2ncc(N3CC[C@H](N(C)C(=O)Nc4cc(C(F)(F)F)cn(C)c4=O)[C@H](F)C3)cc12 [Example I-104-b, 1-((3R,4S)-3-fluoro-1-(3-(2-methoxyethoxy)-1H-pyrazolo[3,4-b]pyridin-5-yl)piperidin-4-yl)-1-methyl-3-(1-methyl-2-oxo-5-(trifluoromethyl)-1,2-dihydropyridin-3-yl)urea] |
| < 0.01 µM | CC(=O)Nc1cnc(N2CCC(N(C)C(=O)Nc3cccc(C(F)(F)F)c3)CC2)cn1 [Example I-16, N-(5-(4-(1-methyl-3-(3-(trifluoromethyl)phenyl)ureido)piperidin-1-yl)pyrazin-2-yl)acetamide] |
| < 0.01 µM | CN(C(=O)Nc1cc(C(F)(F)F)cn(C)c1=O)C12CC(c3cnc4[nH]ncc4c3)(C1)C2 [Example I-116, 1-(3-(1H-pyrazolo[3,4-b]pyridin-5-yl)bicyclo[1.1.1]pentan-1-yl)-1-methyl-3-(1-methyl-2-oxo-5-(trifluoromethyl)-1,2-dihydropyridin-3-yl)urea] |
| < 0.01 µM | CN1CCC(c2n[nH]c3ncc(N4CC[C@H](N(C)C(=O)Nc5cc(C(F)(F)F)cn(C)c5=O)C(F)(F)C4)cc23)CC1 (single isomer, unassigned) [Example I-122-a] |
| < 0.01 µM | CN(C(=O)Nc1cc(C(F)(F)F)cn(C)c1=O)[C@@H]1CC=C(c2cnc3[nH]ccc3n2)CC1 (single isomer, unassigned) [Example I-82-a] |
| 0.01 to 0.05 µM | COCCOc1n[nH]c2ncc(N3CC[C@H](N(C)C(=O)Nc4cc(C(F)(F)F)cn(C)c4=O)C[C@@H]3C)cc12 [Example I-132-a, 1-((2S,4S)-1-(3-(2-methoxyethoxy)-1H-pyrazolo[3,4-b]pyridin-5-yl)-2-methylpiperidin-4-yl)-1-methyl-3-(1-methyl-2-oxo-5-(trifluoromethyl)-1,2-dihydropyridin-3-yl)urea] |
